# According to US20240239763A1, “CRYSTAL FORM OF THIOPHENE DERIVATIVE AND PREPARATION METHOD THEREFOR” (DONGBAO PURPLE STAR (HANGZHOU) BIOPHARMACEUTICAL CO., LTD., priority 2021, published 2024):
# pIC50: −log10 of the molar value.
# What was measured:
# [1] = Hygroscopicity study by dynamic vapor sorption (DVS); assay type: physicochemical; conditions: 25° C. and 80% RH
# Experimental: Instrument model: Intrinsic dynamic vapor sorption analyzer Test conditions: A sample (10 to 30 mg) is taken and placed in a DVS sample tray for testing.
# Detailed parameters for DVS are as follows:
# Equilibrium: dm/dt=0.002%/min (minimum: 10 minutes, maximum: 180 minutes)
# RH (%) test increment range: 0% to 95% to 0%
# DVS Intrinsic dynamic vapor sorption analyzer
# in a DVS sample tray for testing.
# [2] = Solid-state stability test of crystal form C; assay type: physicochemical; conditions: for Content / purity: crystal form C
# Experimental: They were separately placed under stability conditions of high temperature (60° C.), high humidity (25° C./92.5% humidity), combined high temperature and high humidity (40° C./75% humidity), and light exposure. For the sample placed under high temperature and high humidity, the bottle was sealed with aluminum foil, with small holes punctured in the aluminum foil to ensure that the samples could fully contact the ambient air; the sample placed under strong light exposure was sealed with a quartz glass cap. […] The samples placed under combined high temperature and high humidity (40° C./75% humidity) were taken for testing in the 1st, 2nd, and 3rd months (appearance, related substances, and content). The samples placed under light exposure conditions were taken for testing when the total illuminance reached 1.2×10^6 Lux•hr.
# [3] = Hepatic metabolic stability (HMS) in human liver cells; assay type: in vitro ADME; conditions: hepatocytes (liver cells) in suspension, read-out: Hepatic intrinsic clearance rates
# Experimental: (§1) To test the metabolic stability of the test compound in human and rat liver cells.
# (§2) 2.1 Test Compound (10 mM), controls: 7-Ethoxycoumarin (30 mM), 7-Hydroxycoumarin (control, 30 mM)
# (§3) 1) A 30 mM solution was prepared by dissolving a precise amount of the positive control compound in dimethyl sulfoxide (DMSO).
# (§4) 2) In a 96-well plate, the 10 mM test compound and 30 mM positive control compound were diluted to 1 mM and 3 mM, respectively, using DMSO.
# (§5) 3) Acetonitrile was used to further dilute the 1 mM test compound and 3 mM positive control compound to quantification solutions with final concentrations of 100 μM and 300 μM, respectively.
# (§6) 4) The stored cells were thawed, separated, and suspended in culture mediums. These cells were then diluted to a concentration of 0.5×10^6 cells/mL using pre-warmed culture mediums.
# (§7) 5) In the 96-well plate, 198 μL of the pre-warmed cell suspension was added. […]
# (§8) Through the following formula, the residual rates for the test compound and the control compound were calculated.
# (§9) The elimination rate constant k for the test compound and control compound in hepatocytes was calculated by plotting the logarithm of the residual rate against time. The half-life (T1/2) and intrinsic clearance rate (CLint) were determined based on the elimination rate constant k. […]
# [4] = Hepatic metabolic stability (HMS) in rat liver cells; assay type: in vitro ADME; conditions: hepatocytes (liver cells) in suspension, read-out: Hepatic intrinsic clearance rates
# Experimental: as §1, §2, §3, §4, §5, §6, §7, §8, §9
# P-gp (human MDR1) = test: MDR1 membrane permeability test (bidirectional); assay type: in vitro ADME, canine; conditions: dog, MDR1-MDCK II
# Experimental: MDR1-MDCK II cells are Madin-Darby canine kidney cells transfected with the human MDR1 gene, enabling stable high expression of P-gp. The purpose of the present study is to test the bidirectional permeability of the compound across the MDR1-MDCK II cell model and evaluate its potential for efflux transport.
# MDR1-MDCK II cells (sourced from Piet Borst at the Netherlands Cancer Institute) were seeded on polyethylene terephthalate (PET) membranes in a 96-well insert system at a density of 2.5×10^5 cells/mL. The cells were cultured until they formed a confluent monolayer over 4-7 days.
# Test compounds were diluted in transport buffer (HBSS containing 10 mM Hepes with DMSO, pH 7.4) to a concentration of 2 μM (DMSO<1%) and were applied to either the apical or basolateral side of the cell monolayer. […] Additionally, efflux ratios for each compound were measured, and both test and reference compounds were quantified, based on the peak area ratio of the analyte to IS by LC/MS/MS analysis. After the transport assay, the integrity of the cell monolayer was determined using a Lucifer Yellow exclusion assay. […] The relative fluorescence units (RFU) of […] were measured at 425/528 nm (excitation/emission) using an Envision microplate reader.
# The apparent permeability coefficient (Papp, cm/s), efflux ratio, and recovery rate were calculated using the following formulas: […]
# CYP2C19 = CYP2C19 (Homo sapiens (Human), UniProt P33261); test: Cytochrome P450 isoenzyme inhibition, human liver microsomes; assay type: in vitro ADME; conditions: read-out: Cytochrome P450 isoenzymes IC50, CYP2C19
# Chain of CYP2C19 (P33261 whole entry): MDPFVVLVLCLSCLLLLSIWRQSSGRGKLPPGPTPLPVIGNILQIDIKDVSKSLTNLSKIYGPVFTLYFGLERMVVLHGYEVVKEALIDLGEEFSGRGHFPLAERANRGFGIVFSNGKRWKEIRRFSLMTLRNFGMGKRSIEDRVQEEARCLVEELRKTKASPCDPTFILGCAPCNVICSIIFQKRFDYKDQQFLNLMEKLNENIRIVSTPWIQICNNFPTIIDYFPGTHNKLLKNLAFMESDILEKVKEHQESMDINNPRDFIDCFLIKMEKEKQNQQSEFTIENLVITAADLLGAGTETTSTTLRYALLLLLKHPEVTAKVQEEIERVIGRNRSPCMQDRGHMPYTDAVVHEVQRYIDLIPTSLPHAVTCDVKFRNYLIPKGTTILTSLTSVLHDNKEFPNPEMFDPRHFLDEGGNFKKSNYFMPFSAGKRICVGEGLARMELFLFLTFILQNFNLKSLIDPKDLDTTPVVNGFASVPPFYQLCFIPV
# Experimental: (§10) To determine the inhibitory activity of the test compound against different subtypes of human cytochrome P450 isoenzymes. Test compounds, standard inhibitors (at 100× final concentration), and mixed substrate working solutions were prepared; the microsomes (purchased from Corning Inc.) stored at −80° C. were taken out and thawed. To the corresponding wells were added 20 μL of the test compound and standard inhibitor solutions. Meanwhile, 20 μL of the respective solvent was added to the No Inhibitor Control (NIC) and blank control wells. Next, 20 μL of mixed substrate solution was added to the corresponding wells, except the blank wells where 20 μL of phosphate buffer (PB) was added. A human liver microsome solution was prepared (immediately returned to the fridge after the date of use was marked). Then, 158 μL of this solution was added to all the wells. The sample plate was placed in a 37° C. water bath for pre-incubation. A co-enzyme factor (NADPH) solution was then promptly prepared. After 10 minutes, 20 μL of NADPH solution was added to all wells. The sample plate was shaken to mix and placed back into a 37° C. water bath for an additional 10 minutes of incubation. At the respective time points, the reaction was terminated by adding 400 μL of cold acetonitrile solution (internal standard at 200 ng/ml of tolbutamide and labetalol). The sample plate was mixed thoroughly and was then centrifuged at 4000 rpm for 20 minutes to precipitate proteins. 200 μL of the supernatant was taken and mixed with 100 μL of water, after which it was sent for LC/MS/MS analysis.
# CYP2C9 = CYP2C9 (Homo sapiens (Human), UniProt P11712); test: as above; assay type: in vitro ADME; conditions: read-out: Cytochrome P450 isoenzymes IC50, CYP2C9
# Chain of CYP2C9 (P11712 whole entry): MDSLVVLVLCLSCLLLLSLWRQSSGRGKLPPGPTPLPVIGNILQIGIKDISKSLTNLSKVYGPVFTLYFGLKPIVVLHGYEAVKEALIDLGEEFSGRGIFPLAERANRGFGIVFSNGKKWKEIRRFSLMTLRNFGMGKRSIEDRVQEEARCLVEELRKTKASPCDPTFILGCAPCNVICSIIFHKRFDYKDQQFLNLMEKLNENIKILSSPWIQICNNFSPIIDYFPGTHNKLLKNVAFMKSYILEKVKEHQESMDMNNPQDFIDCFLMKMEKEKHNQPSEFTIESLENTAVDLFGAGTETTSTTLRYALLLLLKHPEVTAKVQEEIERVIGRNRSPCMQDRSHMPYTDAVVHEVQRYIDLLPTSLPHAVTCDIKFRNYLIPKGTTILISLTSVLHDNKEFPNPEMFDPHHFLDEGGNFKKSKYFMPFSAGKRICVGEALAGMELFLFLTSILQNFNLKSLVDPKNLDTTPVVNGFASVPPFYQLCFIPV
# Experimental: as §10
# CYP2D6 = CYP2D6 (Homo sapiens (Human), UniProt P10635); test: as above; assay type: in vitro ADME; conditions: read-out: Cytochrome P450 isoenzymes IC50, CYP2D6
# Chain of CYP2D6 (P10635 whole entry): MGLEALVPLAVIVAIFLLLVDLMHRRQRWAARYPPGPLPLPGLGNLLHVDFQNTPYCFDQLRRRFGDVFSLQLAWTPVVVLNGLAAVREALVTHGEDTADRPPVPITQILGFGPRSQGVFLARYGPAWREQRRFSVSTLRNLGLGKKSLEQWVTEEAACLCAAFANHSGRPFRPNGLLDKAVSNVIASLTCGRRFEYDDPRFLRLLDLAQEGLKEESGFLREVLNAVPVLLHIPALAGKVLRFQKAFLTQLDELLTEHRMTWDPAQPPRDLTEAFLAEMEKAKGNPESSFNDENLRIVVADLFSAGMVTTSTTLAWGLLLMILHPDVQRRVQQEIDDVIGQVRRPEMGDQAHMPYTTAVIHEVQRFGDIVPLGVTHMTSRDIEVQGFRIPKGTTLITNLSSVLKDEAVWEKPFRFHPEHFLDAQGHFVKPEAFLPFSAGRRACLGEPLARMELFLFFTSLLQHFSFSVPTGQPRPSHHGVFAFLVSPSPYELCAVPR
# Experimental: as §10
# CYP3A4-M = CYP3A4-M (Homo sapiens (Human), UniProt P08684); test: as above; assay type: in vitro ADME; conditions: read-out: Cytochrome P450 isoenzymes IC50, CYP3A4-M
# Chain of CYP3A4-M (P08684 whole entry): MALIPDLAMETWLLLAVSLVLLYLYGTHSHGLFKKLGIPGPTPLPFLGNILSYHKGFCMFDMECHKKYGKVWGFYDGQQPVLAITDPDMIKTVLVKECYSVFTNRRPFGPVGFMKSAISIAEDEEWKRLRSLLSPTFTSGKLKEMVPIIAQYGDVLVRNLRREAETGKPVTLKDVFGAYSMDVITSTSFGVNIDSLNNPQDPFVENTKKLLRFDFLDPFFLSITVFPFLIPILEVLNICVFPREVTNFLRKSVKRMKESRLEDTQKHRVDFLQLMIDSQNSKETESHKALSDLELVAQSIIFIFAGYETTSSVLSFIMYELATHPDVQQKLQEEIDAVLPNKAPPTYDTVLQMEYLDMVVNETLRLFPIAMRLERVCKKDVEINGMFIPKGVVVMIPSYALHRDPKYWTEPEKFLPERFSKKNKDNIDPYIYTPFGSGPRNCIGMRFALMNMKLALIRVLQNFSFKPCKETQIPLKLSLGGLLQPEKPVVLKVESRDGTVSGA
# Experimental: as §10
# [5] = Pharmacokinetics in SD rats in vivo; conditions: male, Sprague-Dawley, rat, plasma
# Experimental: To test the pharmacokinetics of the compound in SD rats in vivo
# Sprague Dawley rats (male, 180-350 g, 6 to 10 weeks of age, Beijing Vital River).
# The solution was then filtered through a micropore membrane for later use. […] Six male SD rats were divided into two groups. […] In the second group, animals received a single oral gavage dose of the test compound at 10 mg/kg. […] Whole blood was centrifuged at 3200 g for 10 minutes at 4° C. to obtain plasma. The concentrations of the compound and uric acid (in the oral gavage group only) in the plasma were measured using the LC/MS/MS method. Pharmacokinetic parameters such as peak concentration, time to reach peak concentration, clearance rate, half-life, area under the curve, and bioavailability were calculated using Phoenix WinNonlin software.
# [6] = 40° C., relative humidity of 75%, open-top, 1M
# [7] = 40° C., relative humidity of 75%, open-top, 2M
# [8] = 40° C., relative humidity of 75%, open-top, 3M
# [9] = High humidity (25° C./relative humidity of 92.5%, open-top), 5 days
# [10] = High humidity (25° C./relative humidity of 92.5%, open-top), 10 days
# [11] = High humidity (25° C./relative humidity of 92.5%, open-top), 30 days
# [12] = High temperature (60° C., open-top), 5 days
# [13] = High temperature (60° C., open-top), 10 days
# [14] = High temperature (60° C., open-top), 30 days
# [15] = Light exposure (total illuminance: 1.2 × 10^6 Lux · hr/near ultraviolet: 200 w · hr/m^2), 5 days
# [16] = Light exposure (total illuminance: 1.2 × 10^6 Lux · hr/near ultraviolet: 200 w · hr/m^2), 10 days
# [17] = 2.89 mg/kg, 2.89 mpk/intravenous injection
smiles,measurement,setting,value
N#Cc1sc(-c2ccc(C(=O)O)c(O)c2)c2c1CCC(F)(F)C2 [crystal form C],hygroscopicity classification,[1],no hygroscopicity
same,ΔW (hygroscopic weight gain),[1],0.196%
same,solid-state stability (in words),"[2]; high temperature, high humidity, strong light exposure, and accelerated conditions",good stability
N#Cc1sc(-c2ccc(C(=O)O)c(O)c2)c2c1CCC(F)(F)C2 [Compound of formula (I)],Content,[2]; 0 days (initial),98.1%
same,purity,[2]; 0 days (initial),98.84%
same,Content,[2]; [6],97.8%
same,purity,[2]; [6],98.83%
same,Content,[2]; [7],97.8%
same,purity,[2]; [7],99.02%
same,Content,[2]; [8],97.8%
same,purity,[2]; [8],98.86%
same,Content,[2]; [9],97.9%
same,purity,[2]; [9],98.90%
same,Content,[2]; [10],97.9%
same,purity,[2]; [10],98.90%
same,Content,[2]; [11],97.9%
same,purity,[2]; [11],98.80%
same,Content,[2]; [12],98.5%
same,purity,[2]; [12],98.94%
same,Content,[2]; [13],98.3%
same,purity,[2]; [13],98.95%
same,Content,[2]; [14],98.1%
same,purity,[2]; [14],98.87%
same,Content,[2]; [15],97.6%
same,purity,[2]; [15],98.89%
same,Content,[2]; [16],98.0%
same,purity,[2]; [16],98.91%
same,CLint scaled at 1 µM,[3],31.8 mL/min/kg
same,CLint scaled at 1 µM,[4],188 mL/min/kg
same,"Papp A→B at […], 2 µM","P-gp (human MDR1); pH 7.4, A-to-B",26.4 ×10⁻⁶ cm/s
same,"Papp B→A at […], 2 µM","P-gp (human MDR1); pH 7.4, B-to-A",6.63 ×10⁻⁶ cm/s
same,pIC50,CYP2C19,< 4.30
same,pIC50,CYP2C9,4.74
same,pIC50,CYP2D6,< 4.30
same,pIC50,CYP3A4-M,< 4.30
same,AUC(0-inf),[5]; [17],41.8 µM·h
same,C0,[5]; [17],96.6 µM
same,clearance,[5]; [17],3.59 mL/min/kg
same,Vd,"[5]; 2.89 mg/kg, 2.89 mpk/intravenous injection, read-out: Vdss",0.32 L/kg
same,AUC(0-inf),"[5]; 8.58 mg/kg, 8.58 mpk/oral",86.6 µM·h
same,Cmax,"[5]; 8.58 mg/kg, 8.58 mpk/oral",27.5 µM
same,Tmax,"[5]; 8.58 mg/kg, 8.58 mpk/oral",0.5 h
same,bioavailability,"[5]; 8.58 mg/kg, 8.58 mpk/oral",62.1%
same,half-life,"[5]; 8.58 mg/kg, 8.58 mpk/oral",2.47 h
